Source: the supplement of paper PMC11208160

Assay: recombinant UMI read abundance after kanamycin selection (control-corrected) (log10(CPM+1)); higher = more efficient recombination; extreme values may be limits of the assay; sequences stand for … in AGTGCAGAGAAAATCGGCCAGTTTTCTCTGCCTGCAGTCCGCATGCCGTGGGACCCCTTGGGTTCTAACCTGTTGCCTAGATTTATGCAGCGGACTGCCTTTCTCCCAAAGTGATAAACCGG…AGGTTGGTTTCACT; site = the 11-nt donor
How it was run: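 Each donor and donor-binding-loop pair was tracked by a 12-nt UMI on a plasmid carrying a promoterless kanamycin gene. With a second plasmid supplying a fixed target and T7-inducible IS621 bridge recombinase, the pool was plated in Escherichia coli on IPTG (0.07 mM) plus kanamycin or unselected. Sequencing of recombinant UMIs across the donor–target junction gave counts expressed as log10(CPM+1) after replicate averaging and control-derived scaling.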
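Note: IS621 bridge recombinase in Escherichia coli cells against a fixed T5 target plasmid.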

Sequence	recombinant UMI read abundance (log10)
GTATGCTCATGGACCGGTTTTCCCGGTAATCCGTATTTGTA (site GTATGCTCTTA)	2.99
GTATTCGCATGGACCGGTTTTCCCGGTAATCCGTATTTGCG (site GTAATCGCTCG)	0.015
GTATTCGCATGGACCGGTTTTCCCGGTAATCCGTATTTGCG (site GTACTCGCTCG)	0.406
GTATTCGCATGGACCGGTTTTCCCGGTAATCCGTATTTGCG (site GTAGTCGCTCG)	0.00852
GTATTCGCATGGACCGGTTTTCCCGGTAATCCGTATTTGCG (site GTATTCGCTCG)	0.984
GTCAATCCATGGACCGGTTTTCCCGGTAATCCGTATTTGAA (site GACAATCCTTT)	0
GTCAATCCATGGACCGGTTTTCCCGGTAATCCGTATTTGAA (site GCCAATCCTTT)	0.306
GTCAATCCATGGACCGGTTTTCCCGGTAATCCGTATTTGAA (site GGCAATCCTTT)	0.51
GTCAATCCATGGACCGGTTTTCCCGGTAATCCGTATTTGAA (site GTCAATCCTTT)	1.07
GTCACCCCATGGACCGGTTTTCCCGGTAATCCGTATTTGGT (site GTCACCCCTAC)	0.425
GTCACGACATGGACCGGTTTTCCCGGTAATCCGTATTTGAT (site GTCACGACTAT)	1.77
GTCACGACATGGACCGGTTTTCCCGGTAATCCGTATTTGGC (site GTCACGACTGC)	1.65
GTCATATCATGGACCGGTTTTCCCGGTAATCCGTATTTGTG (site GTCATATCTCA)	2.31
GTCCATGCATGGACCGGTTTTCCCGGTAATCCGTATTTGGT (site GTACATGCTAC)	0.0101
GTCCATGCATGGACCGGTTTTCCCGGTAATCCGTATTTGGT (site GTCCATGCTAC)	0.891
GTCCATGCATGGACCGGTTTTCCCGGTAATCCGTATTTGGT (site GTGCATGCTAC)	0.0138
GTCCATGCATGGACCGGTTTTCCCGGTAATCCGTATTTGGT (site GTTCATGCTAC)	0.00783
GTCCCCACATGGACCGGTTTTCCCGGTAATCCGTATTTGCC (site GTCCCCACTGG)	2.05
GTCCCGACATGGACCGGTTTTCCCGGTAATCCGTATTTGCA (site GTCCCGACTTG)	1.54
GTCGAATCATGGACCGGTTTTCCCGGTAATCCGTATTTGTT (site GTCGAATCTAA)	2.52
GTCGAGGCATGGACCGGTTTTCCCGGTAATCCGTATTTGTG (site GTAGAGGCTCA)	0.867
GTCGAGGCATGGACCGGTTTTCCCGGTAATCCGTATTTGTG (site GTCGAGGCTCA)	0.765
GTCGAGGCATGGACCGGTTTTCCCGGTAATCCGTATTTGTG (site GTGGAGGCTCA)	0.0124
GTCGAGGCATGGACCGGTTTTCCCGGTAATCCGTATTTGTG (site GTTGAGGCTCA)	0.0142
GTCGCATCATGGACCGGTTTTCCCGGTAATCCGTATTTGGA (site GTCGCATCTTC)	2.05

Sequence	recombinant UMI read abundance (log10)
GTCGCTCCATGGACCGGTTTTCCCGGTAATCCGTATTTGGG (site GTCGCTCCTCC)	0.0316
GTCGGTCCATGGACCGGTTTTCCCGGTAATCCGTATTTGAA (site GTCGGTCCTTT)	0.0112
GTCTGAGCATGGACCGGTTTTCCCGGTAATCCGTATTTGGA (site GTCTGAGCTTC)	0.754
GTGAAGCCATGGACCGGTTTTCCCGGTAATCCGTATTTGGG (site GAGAAGCCTCC)	0.0044
GTGAAGCCATGGACCGGTTTTCCCGGTAATCCGTATTTGGG (site GCGAAGCCTCC)	0.0113
GTGAAGCCATGGACCGGTTTTCCCGGTAATCCGTATTTGGG (site GGGAAGCCTCC)	0.00817
GTGAAGCCATGGACCGGTTTTCCCGGTAATCCGTATTTGGG (site GTGAAGCCTCC)	0.00505
GTGAAGGCATGGACCGGTTTTCCCGGTAATCCGTATTTGTG (site GTGAAGGCTCA)	2.12
GTGAAGGCATGGACCGGTTTTCCCGGTAATCCGTATTTGTG (site GTGCAGGCTCA)	0.498
GTGAAGGCATGGACCGGTTTTCCCGGTAATCCGTATTTGTG (site GTGGAGGCTCA)	1.02
GTGAAGGCATGGACCGGTTTTCCCGGTAATCCGTATTTGTG (site GTGTAGGCTCA)	0.977
GTGAATGCATGGACCGGTTTTCCCGGTAATCCGTATTTGGT (site GTGAATGCTAC)	2.73
GTGAATGCATGGACCGGTTTTCCCGGTAATCCGTATTTGGT (site GTGCATGCTAC)	0.318
GTGAATGCATGGACCGGTTTTCCCGGTAATCCGTATTTGGT (site GTGGATGCTAC)	1.94
GTGAATGCATGGACCGGTTTTCCCGGTAATCCGTATTTGGT (site GTGTATGCTAC)	1.4
GTGACGCCATGGACCGGTTTTCCCGGTAATCCGTATTTGTG (site GTGACGCCTCA)	0
GTGAGTACATGGACCGGTTTTCCCGGTAATCCGTATTTGAG (site GTGAGTACTCT)	1.75
GTGAGTGCATGGACCGGTTTTCCCGGTAATCCGTATTTGAG (site GTGAGTGCTCT)	2.12
GTGATAACATGGACCGGTTTTCCCGGTAATCCGTATTTGGC (site GTGATAACTGC)	2.59
GTGATGACATGGACCGGTTTTCCCGGTAATCCGTATTTGGC (site GTGATGACTGC)	2.09
GTGATGCCATGGACCGGTTTTCCCGGTAATCCGTATTTGAT (site GTGATGCCTAT)	1.41
GTGATGTCATGGACCGGTTTTCCCGGTAATCCGTATTTGGA (site GTGATGTCTTC)	2.57
GTGCACGCATGGACCGGTTTTCCCGGTAATCCGTATTTGGT (site GTGCAAGCTAC)	0.553
GTGCACGCATGGACCGGTTTTCCCGGTAATCCGTATTTGGT (site GTGCACGCTAC)	1.75
GTGCACGCATGGACCGGTTTTCCCGGTAATCCGTATTTGGT (site GTGCAGGCTAC)	0.00611

Sequence	recombinant UMI read abundance (log10)
GTGCACGCATGGACCGGTTTTCCCGGTAATCCGTATTTGGT (site GTGCATGCTAC)	0.0143
GTGCGAGCATGGACCGGTTTTCCCGGTAATCCGTATTTGCA (site GTACGAGCTTG)	2.68
GTGCGAGCATGGACCGGTTTTCCCGGTAATCCGTATTTGCA (site GTCCGAGCTTG)	0.724
GTGCGAGCATGGACCGGTTTTCCCGGTAATCCGTATTTGCA (site GTGCGAGCTTG)	2.81
GTGCGAGCATGGACCGGTTTTCCCGGTAATCCGTATTTGCA (site GTTCGAGCTTG)	1.48
GTGCGTACATGGACCGGTTTTCCCGGTAATCCGTATTTGCT (site GTGCGTACTAG)	2.23
GTGCGTCCATGGACCGGTTTTCCCGGTAATCCGTATTTGTG (site GTGCGTCCTCA)	0.0594
GTGCTACCATGGACCGGTTTTCCCGGTAATCCGTATTTGGG (site GTGCTACCTCC)	0.0107
GTGGAAGCATGGACCGGTTTTCCCGGTAATCCGTATTTGAA (site GTGGAAGCTTT)	2.55
GTGGAGTCATGGACCGGTTTTCCCGGTAATCCGTATTTGTG (site GTGGAGACTCA)	1.34
GTGGAGTCATGGACCGGTTTTCCCGGTAATCCGTATTTGTG (site GTGGAGCCTCA)	0.572
GTGGAGTCATGGACCGGTTTTCCCGGTAATCCGTATTTGTG (site GTGGAGGCTCA)	0.00513
GTGGAGTCATGGACCGGTTTTCCCGGTAATCCGTATTTGTG (site GTGGAGTCTCA)	2.76
GTGGCAACATGGACCGGTTTTCCCGGTAATCCGTATTTGCG (site GTGGCAACTCG)	1.03
GTGGCAACATGGACCGGTTTTCCCGGTAATCCGTATTTGTA (site GTGGCAACTTA)	0.85
GTGGGCCCATGGACCGGTTTTCCCGGTAATCCGTATTTGTC (site GTGGGCCCTGA)	0.429
GTGGGCGCATGGACCGGTTTTCCCGGTAATCCGTATTTGGG (site GTGGGCGCTCC)	0.22
GTGTACCCATGGACCGGTTTTCCCGGTAATCCGTATTTGGC (site GTGTACCCTGC)	0.705
GTGTACGCATGGACCGGTTTTCCCGGTAATCCGTATTTGTC (site GTGTACGCTGA)	2.81
GTGTTGACATGGACCGGTTTTCCCGGTAATCCGTATTTGTG (site GTGTTGACTCA)	1.33
GTTAAAGCATGGACCGGTTTTCCCGGTAATCCGTATTTGTA (site GTTAAAGCTTA)	2.59
GTTAACGCATGGACCGGTTTTCCCGGTAATCCGTATTTGGA (site GTTAACGCTTC)	0.944
GTTACAACATGGACCGGTTTTCCCGGTAATCCGTATTTGAT (site GTTACAACTAT)	0.492
GTTACGTCATGGACCGGTTTTCCCGGTAATCCGTATTTGTT (site GATACGTCTAA)	0.0159
GTTACGTCATGGACCGGTTTTCCCGGTAATCCGTATTTGTT (site GCTACGTCTAA)	0.00335
